Tests used:
MALT1 = biological target: T1, MALT1 (Homo sapiens, UniProt Q9UDY8); assay: MALT-1 Fluorogenic Peptide Cleavage Assay (MALT1 inhibition assay); type: biochemical; conditions: Avi-tagged FL MALT-1, Ac-LRSR-AMC peptide substrate, 30 min pre-incubation, 90 min reaction
T1 construct: Avi-tagged FL MALT-1 (Pharmaron, stored at −70° C.); Avi tag
T1 sequence (Q9UDY8 1-824): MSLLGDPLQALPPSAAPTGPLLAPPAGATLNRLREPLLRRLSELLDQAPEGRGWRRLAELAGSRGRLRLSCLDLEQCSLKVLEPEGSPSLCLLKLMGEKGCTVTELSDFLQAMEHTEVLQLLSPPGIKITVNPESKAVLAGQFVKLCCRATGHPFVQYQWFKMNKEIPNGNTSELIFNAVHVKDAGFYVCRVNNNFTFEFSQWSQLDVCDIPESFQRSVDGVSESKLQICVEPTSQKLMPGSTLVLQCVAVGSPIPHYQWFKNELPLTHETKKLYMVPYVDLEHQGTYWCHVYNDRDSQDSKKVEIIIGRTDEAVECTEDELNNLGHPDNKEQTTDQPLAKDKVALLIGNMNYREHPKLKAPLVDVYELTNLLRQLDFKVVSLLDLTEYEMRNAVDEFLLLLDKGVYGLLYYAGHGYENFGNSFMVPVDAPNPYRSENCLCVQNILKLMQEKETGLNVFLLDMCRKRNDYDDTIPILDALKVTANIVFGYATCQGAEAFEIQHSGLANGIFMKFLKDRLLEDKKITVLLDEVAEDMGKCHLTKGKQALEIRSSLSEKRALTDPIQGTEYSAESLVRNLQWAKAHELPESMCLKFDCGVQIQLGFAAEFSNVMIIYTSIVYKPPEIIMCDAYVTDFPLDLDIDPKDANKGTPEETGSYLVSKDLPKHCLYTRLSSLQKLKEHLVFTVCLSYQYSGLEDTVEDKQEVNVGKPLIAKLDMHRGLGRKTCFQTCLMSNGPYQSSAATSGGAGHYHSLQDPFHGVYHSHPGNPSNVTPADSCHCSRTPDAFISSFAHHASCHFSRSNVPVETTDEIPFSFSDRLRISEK
Description: Inhibition of MALT1 activity by the presence of small molecules was evaluated using MALT-1 Fluorogenic Peptide Cleavage Assay. The assay utilizes a quenched AMC-labelled peptide that contains the MALT-1 recognition sequence and cleavage site (LRSR). MALT-1 mediated cleavage of the peptide relieves the quenching and leads to an increase in fluorescence at excitation (342 nm) and emission (441 nm). The following reagents were obtained commercially and used to prepare standard reagent formulations as further described below: […] The standard reagent formulations used in this assay were prepared and stored as follows. A 1.1 M solution of sodium citrate (161.3 g, 500 mL) was prepared and stored at room temperature. A 10% (w/v) CHAPS solution (2.0 g, 20 mL) was prepared and stored at 4° C. A 500 mM HEPES solution having pH of 6.89 was prepared from 200 mL of a 1 M HEPES solution having a pH of 7.5 using concentrated hydrochloric acid and brought to a final volume of 400 mL with […]® H2O. The substrate, 10 mM Ac-LRSR-AMC Peptide, was prepared (10 mg, 1.370 mL DMSO) and stored at -20° C. Compounds were plated to provide a 2% DMSO final concentration using a ProxiPlate-384 Plus F Black 384-shallow well microplate. The assay-ready plates were equilibrated to room temperature. […] DMSO was added only when compound plates had not been DMSO-backfilled to 2%. MALT-1 was thawed and kept on ice. Peptide substrate was thawed on the bench under ambient conditions. A MALT-1 enzyme working stock was prepared from Avi-tagged FL MALT-1 (40 nM in a prepared reagent volume of 16.5 μL) and the reaction buffer (13.0 mL). MALT1 working stock (5 μL) was added to each well of the microplate. MALT-1 was pre-incubated with compounds for 30 minutes at room temperature. […] The plates were covered and incubated on the bench at room temperature for 90 minutes. Fluorescence intensity was determined using a CLARIOstar microplate reader (BMG LABTECH) using the optimised AMC mode. Before taking readings, a 70% gain was applied on the neutral control well. Compound data were normalised to % Inhibition and used to plot sigmoidal concentration response curves to yield various parameters including IC50. […] Compounds in which an IC50 was not measured are designated as “N/A”.

NF-kB = NF-kB reporter assay in Jurkat cells stimulated with aCD3/aCD28/PMA; type: cell-based; conditions: Homo sapiens, Jurkat, Jurkat cells, 1 hr compound incubation, aCD3/aCD28/PMA stimulation 4 hr, One-Glo readout; read-out: NF-kB Reporter Assay IC50
Description: Jurkat cells were maintained in complete RPMI 1640 media supplemented with 10% FBS. Prior to the assay, 120 nL of the serial diluted compound was added in each well of 384-well flat bottom white plate (Corning #3570) by using liquid handler Echo550. Jurkat cells were harvested by centrifugation at 120 g for 10 min and resuspended in fresh RPMI 1640 media without serum. 30 μL of cells (25,000 cells) were seeded in each well of 384-well plate containing compound. After 1 hr incubation at 37° C. in a 5% CO2 incubator, 10 μL of diluted aCD3/aCD28/PMA (final concentration at 5 μg/mL, 5 μg/mL and 0.03 μg/mL, respectively) in RPMI 1640 without serum were added to each well. After incubation at 37° C. in 5% CO2 for 4 hr, 30 μL of One-Glo reagent (Promega #E6120) was added into each well. The plate was left at room temperature for 5 min and the signal was measured on EnVision (PerkinElmer).
Compounds in which an IC50 was not measured are designated as “N/A”.

Structure (SMILES) | IC50 (MALT1) | IC50 (NF-kB)
Cn1cc2ccc(Cl)c(NS(=O)(=O)c3ccc(-n4cc(C(F)(F)F)cn4)nc3)c2n1 [Example I-25, N-(6-Chloro-2-Methyl-2H-Indazol-7-yl)-6-(4-(Trifluoromethyl)-1H-Pyrazol-1-yl)Pyridine-3-Sulfonamide] | 1000 to 2500 nM | > 2500 nM
CCc1ccc2cn(C)nc2c1NS(=O)(=O)c1ccc(-n2cc(C(F)(F)F)cn2)nc1 [Example I-26, N-(6-Ethyl-2-Methylindazol-7-yl)-6-[4-(Trifluoromethyl)Pyrazol-1-yl]pyridine-3-Sulfonamide] | < 400 nM | > 2500 nM
COc1ccc2cn(C)nc2c1NS(=O)(=O)c1ccc(-n2cc(C(F)(F)F)cn2)nc1 [Example I-27, N-(6-Methoxy-2-Methylindazol-7-yl)-6-[4-(Trifluoromethyl)Pyrazol-1-yl]pyridine-3-Sulfonamide] | < 400 nM | 1000 to 2500 nM
COc1ccc2cnn(C)c2c1NS(=O)(=O)c1ccc(-n2ncc(C(F)(F)F)n2)nc1 [Example I-28, N-(6-Methoxy-1-Methyl-1H-Indazol-7-yl)-6-(4-(Trifluoromethyl)-2H-1,2,3-Triazol-2-yl)Pyridine-3-Sulfonamide] | 400 to 1000 nM | < 400 nM
COc1ccc2cnn(C)c2c1NS(=O)(=O)c1ccc(-n2cc(C(F)(F)F)nn2)nc1 [Example I-29, N-(6-Methoxy-1-Methyl-1H-Indazol-7-yl)-6-(4-(Trifluoromethyl)-1H-1,2,3-Triazol-1-yl)Pyridine-3-Sulfonamide] | < 400 nM | < 400 nM
COc1ccc2cnn(C)c2c1N(C)S(=O)(=O)c1ccc(-n2ccc(C(F)(F)F)n2)nc1 [Example I-30, N-(6-Methoxy-1-Methylindazol-7-yl)-N-Methyl-6-[3-(Trifluoromethyl) Pyrazol-1-yl] Pyridine-3-Sulfonamide] | < 400 nM | < 400 nM
COc1cnn(-c2ccc(S(=O)(=O)Nc3cccc4cnn(C)c34)cn2)c1 [Example I-35, 6-(4-Methoxy-1H-Pyrazol-1-yl)-N-(1-Methyl-1H-Indazol-7-yl)Pyridine-3-Sulfonamide] | > 2500 nM | < 400 nM
Cn1ncc2cccc(NS(=O)(=O)c3ccc(-n4cc(F)cn4)nc3)c21 [Example I-38, 6-(4-Fluoro-1H-Pyrazol-1-yl)-N-(1-Methyl-1H-Indazol-7-yl) Pyridine-3-Sulfonamide] | 1000 to 2500 nM | < 400 nM
Cn1ncc2cccc(NS(=O)(=O)c3ccc(-n4cc(C#N)cn4)nc3)c21 [Example I-39, 6-(4-Cyano-1H-Pyrazol-1-yl)-N-(1-Methyl-1H-Indazol-7-yl)Pyridine-3-Sulfonamide] | > 2500 nM | 400 to 1000 nM
Cn1ncc2cccc(NS(=O)(=O)c3ccc(-n4cc([N+](=O)[O-])cn4)nc3)c21 [Example I-41, N-(1-Methylindazol-7-yl)-6-(4-Nitropyrazol-1-yl)Pyridine-3-Sulfonamide] | < 400 nM | 400 to 1000 nM
Cc1nn(-c2ccc(S(=O)(=O)Nc3cccc4cnn(C)c34)cn2)c(C)c1Cl [Example I-42, 6-(4-Chloro-3,5-Dimethyl-1H-Pyrazol-1-yl)-N-(1-Methyl-1H-Indazol-7-yl) Pyridine-3-Sulfonamide] | > 2500 nM | < 400 nM
Cc1cc(C(F)(F)F)nn1-c1ccc(S(=O)(=O)Nc2cccc3cnn(C)c23)cn1 [Example I-43, 6-[5-Methyl-3-(Trifluoromethyl)Pyrazol-1-Yl]-N-(1-Methylindazol-7-yl)Pyridine-3-Sulfonamide] | 1000 to 2500 nM | < 400 nM
Cc1cn(-c2ccc(S(=O)(=O)Nc3cccc4cnn(C)c34)cn2)nc1C(F)(F)F [Example I-44, 6-[4-Methyl-3-(Trifluoromethyl)Pyrazol-1-Yl]-N-(1-Methylindazol-7-yl)Pyridine-3-Sulfonamide] | 400 to 1000 nM | < 400 nM
COc1ccc2cnn(C)c2c1N(C)S(=O)(=O)c1ccc(-c2cc(C(F)(F)F)n[nH]2)nc1 [Example I-48, N-(6-Methoxy-1-Methyl-1H-Indazol-7-yl)-N-Methyl-6-(3-(Trifluoromethyl)-1H-Pyrazol-5-yl)Pyridine-3-Sulfonamide] | < 400 nM | < 400 nM
COc1ccc2cnn(C)c2c1NS(=O)(=O)c1ccc(-c2cc(C(F)(F)F)n(C)n2)nc1 [Example I-49, N-(6-Methoxy-1-Methyl-1H-Indazol-7-yl)-6-(1-Methyl-5-(Trifluoromethyl)-1H-Pyrazol-3-yl)Pyridine-3-Sulfonamide] | < 400 nM | < 400 nM

Second part, the molecule after the results:

IC50 (MALT1) | IC50 (NF-kB) | Structure (SMILES)
< 400 nM | < 400 nM | Cc1ccc2cnn(C)c2c1NS(=O)(=O)c1ccc(-n2cc(C(F)(F)F)cn2)nc1 [Example I-31, N-(1,6-Dimethyl-1H-Indazol-7-yl)-6-(4-(Trifluoromethyl)-1H-Pyrazol-1-yl)Pyridine-3-Sulfonamide]
< 400 nM | < 400 nM | COc1ccc2cnn(C)c2c1NS(=O)(=O)c1ccc(-n2cc(C(C)C)cn2)nc1 [Example I-32, 6-(4-Isopropyl-1H-Pyrazol-1-yl)-N-(6-Methoxy-1-Methyl-1H-Indazol-7-yl)Pyridine-3-Sulfonamide]
< 400 nM | < 400 nM | CCc1ccc2cnn(C)c2c1NS(=O)(=O)c1ccc(-n2ccc(C)n2)nc1 [Example I-33, N-(6-Ethyl-1-Methyl-1H-Indazol-7-yl)-6-(3-Methyl-1H-Pyrazol-1-yl)Pyridine-3-Sulfonamide]
< 400 nM | 400 to 1000 nM | Cc1ccn(-c2ccc(S(=O)(=O)Nc3c(C)ccc4cnn(C)c34)cn2)n1 [Example I-34, N-(1,6-dimethyl-1H-indazol-7-yl)-6-(3-methyl-1H-pyrazol-1-yl)pyridine-3-sulfonamide]
> 2500 nM | < 400 nM | CC(C)c1ccn(-c2ccc(S(=O)(=O)Nc3cccc4cnn(C)c34)cn2)n1 [Example I-36, 6-(3-Isopropyl-1H-Pyrazol-1-yl)-N-(1-Methyl-1H-Indazol-7-yl)Pyridine-3-Sulfonamide]
> 2500 nM | 1000 to 2500 nM | Cc1ncn(-c2ccc(S(=O)(=O)Nc3cccc4cnn(C)c34)cn2)n1 [Example I-37, 6-(3-Methyl-1H-1,2,4-Triazol-1-yl)-N-(1-Methyl-1H-Indazol-7-yl)Pyridine-3-Sulfonamide]
> 2500 nM | < 400 nM | Cc1cc(C)n(-c2ccc(S(=O)(=O)Nc3cccc4cnn(C)c34)cn2)n1 [Example I-40, 6-(3,5-Dimethyl-1H-Pyrazol-1-yl)-N-(1-Methyl-1H-Indazol-7-yl)Pyridine-3-Sulfonamide]

Reference: patent publication US20240150365A1 (Hotspot Therapeutics, Inc., priority 2022, published 2024)
